Source: patent US5512549A, “Glucagon-like insulinotropic peptide analogs, compositions, and methods of use” (Eli Lilly and Company, priority 1994, dated 1996)

Columns and labels:
beagles [1] = test: Dog S.C. Hyperglycemic (150 mg/dl) Clamp Test; assay type: in vivo; details: S.C. 10 μg/kg
Method: (§1) a) Hyperglycemic Clamp Studies
(§2) Experiments were conducted in overnight-fasted, conscious, adult (1-2 years of age) male and female beagles weighing 8-15 kg. At least ten days prior to the study, animals were anesthetized with isoflurane, and a cut-down was made in the left or right inguinal region. Silastic catheters were inserted into the femoral artery and the proximal caudal femoral vein and secured with 4-0 silk suture. The free ends of the catheters were passed subcutaneously to the back using a trocar needle. The catheters were then filled with a glycerol/heparin solution (3:1, v/v; final heparin concentration of 250 KIU/ml), and the free ends were knotted and placed in a subcutaneous pocket to allow complete closure of the skin. Keflex® was administered both pre-operatively (20 mg/kg, IV and 20 mg/kg, I.M.) and post-operatively (250 mg, p.o. once daily for seven days) to prevent infections. Torbugesic (1.5 mg/kg, I.M.) was administered post-operativelyto control pain.
(§3) Blood was drawn just prior to the study day to determine the health of the animal. Only animals with hematocrits above 38% and leukocyte counts below 16,000/mm^3 were used.
(§4) The afternoon before the experiment, the free ends of the catheters were exteriorized from the subcutaneous pocket through a small incision made under local anesthesia (2% lidocaine), and the dog was fitted with a tether system jacket and collar assembly.
(§5) The morning of the experiment, the contents of the catheters were aspirated, the catheters were flushed with saline, and extension lines (protected by a stainless steel tether) were attached to the catheters. On mornings of IV injection experiments, an over-the-needle, teflon catheter was inserted percutaneously into a cephalic vein in preparation for the administration of an IV bolus of test substance. The dog was placed in a metabolic cage, and the catheter extension lines and tether were attached to a swivel system to allow the dog to move freely about the cage. At this time (-60 minutes), an exogenous infusion of glucose (50% w/v in water) was begun through the chronic venous catheter. Glucose was infused in a descending stepwise fashion over the first six minutes of the study to rapidly raise the plasma glucose concentration to 150 mg/dl. Plasma glucose concentrations were determined every 2.5 to 7.5 minutes throughout the remainder of the study, and the glucose infusion rate was adjusted appropriately to maintain the plasma glucose concentration at 150 mg/dl.
(§6) Sixty minutes after the start of the glucose infusion (time 0), test substance was administered either intravenously (1.0, 2.9, 5.0 or 10.0 μg/kg; dose dissolved in 2 ml of saline containing 0.3% dog albumin, w/v) through the previously inserted teflon catheter or subcutaneously (10 μg/kg; 150 μM in phosphate buffered saline) in the dorsal aspect of the neck.
(§7) Arterial blood samples (3.5 ml) were taken at -30, -15, 0, 2.5, 5, 7.5, 10, 12.5, 15, 20, 30, 45, 60, 75, 90, 105 and 120 minutes during the IV studies and at -30, -15, 0, 3, 6, 9, 12, 15, 20, 30, 45, 60, 75, 90, 105 and 120 minutes during the SC studies. Samples were collected in vacuum blood collection tubes containing disodium EDTA and immediately placed on ice. To prevent proteolytic cleavage of GLP-1(7-37) in the plasma samples, 1.5 ml of the EDTA containing blood were transferred to a polypropylene tube containing 40 μl of aprotinin (10,000 KIU/ml) and mixed well. The samples were centrifuged, and the resulting plasma was transferred to polypropylene test tubes and stored on ice for the duration of the study.
(§8) At the conclusion of the experiment, the animal was anesthetized (isoflurane); the catheters were flushed with fresh saline and filled with the glycerol/heparin mixture; the free ends of the catheters were knotted and placed subcutaneously as described earlier; and antibiotic was administered (300 mg Keflex®, I.M.). […]

rat GLP-1 receptor = target: T1, rat GLP-1 receptor (Rattus norvegicus, UniProt P32301); test: cAMP Assay (in vitro receptor binding assay) on membrane preparation; assay type: biochemical; details: cAMP production, CHO membranes expressing rat GLP-1 receptor; mean ± spread
T1 construct: expressed in transfected cells; host or cells: CHO DXB-11 (Chinese hamster ovary) cells, used as a membrane preparation
T1 sequence (P32301 22-463): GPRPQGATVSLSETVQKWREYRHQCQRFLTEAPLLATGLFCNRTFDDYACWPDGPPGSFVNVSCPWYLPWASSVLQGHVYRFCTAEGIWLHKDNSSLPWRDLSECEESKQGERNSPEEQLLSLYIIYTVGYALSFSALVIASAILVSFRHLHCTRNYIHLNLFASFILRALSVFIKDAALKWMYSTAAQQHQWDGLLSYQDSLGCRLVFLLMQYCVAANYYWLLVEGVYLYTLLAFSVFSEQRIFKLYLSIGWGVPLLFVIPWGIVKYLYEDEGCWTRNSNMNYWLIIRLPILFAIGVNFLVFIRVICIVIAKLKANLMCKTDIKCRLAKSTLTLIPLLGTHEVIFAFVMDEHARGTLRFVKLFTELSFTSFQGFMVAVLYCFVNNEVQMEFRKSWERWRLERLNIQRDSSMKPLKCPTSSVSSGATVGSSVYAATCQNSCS
Method: A sample of the membrane preparation was preincubated with a test compound or a control compound in buffer (25 mM HEPES, 0.2% (w/v) BSA, pH 7.6) at 32° C. for 10 minutes. Reaction buffer (final concentration: 25 mM HEPES, 0.2% (w/v) BSA, 2.6 mM Mg, 0.8 mMATP, 0.1 mM GTP, 5 mM creatine phosphate, creatine kinase 50 U/ml, 0.2 mM IBMX, pH 7.6) was added and incubated for an additional 30 minutes. Incubations were stopped by adding 10 mM EDTA.
Production of cAMP was assayed using a fluorescent tracer-immuno assay method. In brief, after the incubation was stopped, fluorescent tracer (cAMP-b phycoerythrin conjugate) was added followed by the addition of affinity purified anti-cAMP rabbit antiserum. After incubation at room temperature for 45 minutes, anti-rabbit IgG coated assay beads were added and incubated for an additional 15 minutes. Plates were then evacuated and read on a Pandex PFCIA reader.
Fluorescent intensity values were correlated to rate of cAMP production (pmol/min/mg).

beagles [2] = test: Dog I.V. Hyperglycemic (150 mg/dl) Clamp Test; assay type: in vivo; details: I.V. 1.0 μg/kg
Method: as §1, §2, §3, §4, §5, §6, §7, §8

[3] = tested on: Sprague Dawley or Zucker Diabetic Fatty rats; test: Rat IV Glucose (1 g/kg) Tolerance Test; assay type: in vivo; details: for Insulin Change AUC: 0-15 min
Method: a) Glucose Tolerance Tests
Experiments were conducted in overnight-fasted, conscious, male Sprague Dawley (Charles River) or Zucker Diabetic Fatty (Genetic Models, Inc.) rats weighing approximately 250 (Sprague Dawley rats) or 300 (Zucker Diabetic Fatty rats) grams. Four to five days prior the study, rats were anesthetized with isoflurane, and a polyethylene (PE50) catheter was inserted into the right jugular vein. The catheter was secured with a wound clip, filled with saline containing heparin (2% sodium heparin), and closed with a small stainless steel plug.
After a sixteen-hour fast, twelve chronically cannulated rats were separated into four groups of three rats per group. 0.4 ml of blood was taken from the tail vein, collected into a microtainer tube containing lithium heparin, and immediately placed on ice (zero minute sample). A glucose bolus (1.0 g/kg; 50% glucose (w/v) in water) was administered via the indwelling jugular cannula, and the cannula was rinsed with 200 μl of saline. Twenty seconds later a bolus of test substance 100 μl/100 g body weight of either vehicle (saline containing 0.3% (w/v) bovine serum albumin) or vehicle containing analog! was administered through the jugular cannula, and the cannula was rinsed as before. Rats were bled from the tail again at 2, 5, 10, 20 and 30 minutes after the administration of the glucose bolus, and the samples were treated as described above. At the end of the experiment, blood samples were centrifuged, and the plasma was collected.
Plasma glucose concentrations were determined the day of the experiment using a coupled hexokinase procedure in a clinical chemistry analyzer. Plasma for insulin determinations were diluted with zero calibrator and frozen at -20° C. until time for analysis. Insulin concentrations were determined using a commercial radioimmunoassay kit with rat insulin as the standard.
Insulin change (the change in insulin from the baseline value) was calculated as the difference between the insulin concentration at time t and the insulin concentration at zero time. The area under the insulin change curve was calculated using the trapezoidal rule. Plasma glucose change (the increase in plasma glucose above the baseline value) was calculated as the difference between the plasma glucose concentration at time t and the plasma glucose concentration at zero time. The area under the plasma glucose change curve was calculated using the trapezoidal rule. Values are listed as the mean ± the standard error of the mean (SEM).

[4] = 120 minute test period, mean ± SEM

## Arg^26 -Lys^34 -N^ε -octanoyl-GLP-1(8-37)OH [Arg^26-Lys^34-N^ε-octanoyl-GLP-1(8-37)OH]
Beagles [1]; 0-120 min, mean ± SEM
  GIR Change AUC: 659 ± 182 mg/kg
  Insulin Change AUC: 11 ± 26 ng·min/mL
Beagles [1]; [4]
  Max Insulin Change: 0.6 ± 0.4 ng/mL
Beagles [1]; time average insulin change consistently >0.5 ng/ml
  Duration of Insulin Effect: not active

## N- Imidazole-α,α-dimethyl-acetyl!GLP-1 (8-37)OH [α,α-imidazoacetyl-GLP-1(8-37)OH]
Rat GLP-1 receptor
  % Relative Potency: 108.2 ± 22.4%

## GLP-1(7-36)NH2
Beagles [2]; 0-60 min, mean ± SEM
  GIR Change AUC: 414 ± 73 mg/kg
  Insulin Change AUC: 32 ± 8 ng·min/mL
Beagles [2]; [4]
  Max Insulin Change: 3.4 ± 0.6 ng/mL
Beagles [2]; time average insulin change consistently ≥0.5 ng/ml
  Duration of Insulin Effect: 2.5 min
[3]; IV dose 0.2 mg/kg
  Insulin Change at 10 min: 1.8 ng/mL
  Max Insulin Change: 4.0 ng/mL
  Insulin Change AUC: 34 ± 4 ng·min/mL
[3]; IV dose 0.3 mg/kg
  Insulin Change at 10 min: 2.2 ng/mL
  Max Insulin Change: 6.1 ng/mL
  Insulin Change AUC: 50 ± 13 ng·min/mL
[3]; IV dose 0.4 mg/kg
  Insulin Change at 10 min: 3.8 ng/mL
  Max Insulin Change: 7.7 ng/mL
  Insulin Change AUC: 73 ± 14 ng·min/mL
[3]; IV dose 0.6 mg/kg
  Insulin Change at 10 min: 3.4 ng/mL
  Max Insulin Change: 7.7 ng/mL
  Insulin Change AUC: 67 ± 11 ng·min/mL
[3]; IV dose 0.8 mg/kg
  Insulin Change at 10 min: 4.1 ng/mL
  Max Insulin Change: 11.3 ng/mL
  Insulin Change AUC: 97 ± 25 ng·min/mL
[3]; IV dose 1.0 mg/kg
  Insulin Change at 10 min: 3.9 ng/mL
  Max Insulin Change: 11.4 ng/mL
  Insulin Change AUC: 89 ± 16 ng·min/mL
[3]; IV dose 2.0 mg/kg
  Insulin Change at 10 min: 4.9 ng/mL
  Max Insulin Change: 11.7 ng/mL
